Measured values from US7338958B2, “Sulfoximine-substituted pyrimidines as CDK-and/or VEGF inhibitors, their production and use as pharmaceutical agents” (Schering AG, priority 2003, dated 2008).

Columns and labels:
[1] = target: T1, VEGF receptor tyrosine kinase-2 (Homo sapiens, UniProt P35968); experiment: VEGF Receptor-2 Kinase Assay; assay type: biochemical; settings: poly-(Glu4Tyr) substrate, 33P-ATP, 10 minutes at 22° C.; read-out: VEGF-R2 IC50
T1 construct: GST; made in house; host or cells: baculovirus-infected insect cells (Sf9)

Human Carboanhydrase-2 = Human Carboanhydrase-2 (Homo sapiens, UniProt P00918); experiment: Carboanhydrase Assay; assay type: biochemical; settings: 4-nitrophenyl acetate hydrolysis, 400 nm; read-out: Inhibition of Human Carboanhydrase-2 IC50
Protocol: 2 μl of the test compounds, dissolved in DMSO (100× the final concentration), in a concentration range of 0.03-10 μm (final), was pipetted as 4× determinations into the holes of a 96-hole microtiter plate. Holes that contained the solvent without test compounds were used as reference values (1. Holes without carboanhydrase for correction of the non-enzymatic hydrolysis of the substrate, and 2. Holes with carboanhydrase for determining the activity of the non-inhibited enzyme).
188 μl of assay buffer (10 mmol of Tris/HCl, pH 7.4, 80 mmol of NaCl), with or without 3 units/hole on carboanhydrase I or II, was pipetted into the holes of the microtiter plate.

MaTu-ADR = experiment: Proliferation assay, MaTu-ADR; assay type: cell-based; settings: Homo sapiens, 96 h, MaTu-ADR cells, 4 days incubation, crystal violet
Procedure, shortened: (§1)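 Cells seeded ~5000/well, treated after 24 h with 0.01-30 μM compound (0.5% DMSO) for 4 days. Glutaraldehyde-fixed cells stained with crystal violet, absorbance at 595 nm; growth expressed as percent, normalized to zero-point plate (0%) and untreated cells (100%).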

[2] = tested on: MCF7, hormone-independent human breast cancer cells; experiment: Proliferation assay, MCF7; assay type: cell-based; settings: MCF7, 96 h, 4 days incubation, crystal violet
Procedure, shortened: as §1

[3] = tested on: HCT 116, human colon cancer cells; experiment: Proliferation assay, HCT116; assay type: cell-based; settings: HCT-116, 96 h, 4 days incubation, crystal violet
Excerpt: Cultivated human tumor cells (MCF7, hormone-independent human breast cancer cells, related to ATCC HTB22; NCI-H460, human non-small-cell lung cancer cells, ATCC HTB-177, HCT 116, human colon cancer cells, ATCC CCL-247; DU 145, hormone-independent human prostate cancer cells, ATCC HTB-81; MaTu-MDR, hormone-independent, multiple pharmaceutical agent-resistant human breast cancer cells, EPO-GmbH, Berlin) were flattened out at a density of about 5000 cells/measuring point, depending on the growth rate of the respective cells, in a 96-well multititer plate in 200 μl of the corresponding growth medium. After 24 hours, the cells of one plate (zero-point plate) were colored with crystal violet (see below), while the medium of the other plates was replaced by fresh culture medium (200 μl), to which the test substances were added in various concentrations (0 μm, as well as in the range of 0.01-30 μm; the final concentration of the solvent dimethyl sulfoxide was 0.5%). The cells were incubated for 4 days in the presence of test substances. The cell proliferation was determined by coloring the cells with crystal violet: the cells were fixed by adding 20 μl/measuring point of an 11% glutaric aldehyde solution for 15 minutes at room temperature. After three washing cycles of the fixed cells with water, the plates were dried at room temperature. The cells were colored by adding 100 μl/measuring point of a 0.1% crystal violet solution (the pH was set at 3 by adding acetic acid). After three washing cycles of the colored cells with water, the plates were dried at room temperature. The dye was dissolved by adding 100 μl/measuring point of a 10% acetic acid solution. The extinction was determined by photometry at a wavelength of 595 nm. The change of cell growth, in percent, was calculated by normalization of the measured values to the extinction values of the zero-point plate (=0%) and the extinction of the untreated (0 μm) cells (=100%).

CDK1/CycB = target: T2, CDK1/CycB (Homo sapiens, UniProt P06493); experiment: CDK1/CycB Kinase Assay; assay type: biochemical; settings: histone IIIS substrate, 33P-ATP, 15 minutes at 22° C.
T2 construct: GST; purchased ProQinase GmbH, Freiburg; host or cells: baculovirus-infected insect cells (Sf9)

[4] = tested on: NCI-H460, human non-small-cell lung cancer cells; experiment: Proliferation assay, H460; assay type: cell-based; settings: NCI-H460, 96 h, 4 days incubation, crystal violet
Procedure, shortened: as §1

CDK2/CycE = target: T3, CDK2/CycE (Homo sapiens, UniProt P24941); experiment: CDK2/CycE Kinase Assay; assay type: biochemical; settings: histone IIIS substrate, 33P-ATP, 15 minutes at 22° C.
T3 construct: GST; purchased ProQinase GmbH, Freiburg; host or cells: baculovirus-infected insect cells (Sf9)
Procedure, shortened: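 Recombinant GST-tagged CDK2/CycE from Sf9 cells (50 ng/point) was incubated with compound (0.01-100 μM) for 15 min at 22° C, pH 8.0, with 0.5 μM ATP plus ^33P-γ-ATP and histone IIIS as substrate, in 12.5% DMSO. Incorporated ^33P was counted after filter binding and washing.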

[5] = tested on: DU 145, hormone-independent human prostate cancer cells; experiment: Proliferation assay, DU145; assay type: cell-based; settings: DU-145, 96 h, 4 days incubation, crystal violet
Procedure, shortened: as §1

T2 sequence (P06493 whole entry): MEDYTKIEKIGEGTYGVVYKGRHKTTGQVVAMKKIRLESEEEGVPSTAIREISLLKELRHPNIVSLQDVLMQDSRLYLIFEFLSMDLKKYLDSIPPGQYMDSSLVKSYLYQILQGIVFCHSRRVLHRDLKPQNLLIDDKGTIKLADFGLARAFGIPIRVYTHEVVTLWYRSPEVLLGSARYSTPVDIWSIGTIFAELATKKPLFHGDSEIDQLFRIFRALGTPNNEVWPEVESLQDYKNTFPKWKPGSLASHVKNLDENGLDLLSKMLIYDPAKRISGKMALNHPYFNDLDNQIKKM
T2 sequence (P14635 whole entry partner): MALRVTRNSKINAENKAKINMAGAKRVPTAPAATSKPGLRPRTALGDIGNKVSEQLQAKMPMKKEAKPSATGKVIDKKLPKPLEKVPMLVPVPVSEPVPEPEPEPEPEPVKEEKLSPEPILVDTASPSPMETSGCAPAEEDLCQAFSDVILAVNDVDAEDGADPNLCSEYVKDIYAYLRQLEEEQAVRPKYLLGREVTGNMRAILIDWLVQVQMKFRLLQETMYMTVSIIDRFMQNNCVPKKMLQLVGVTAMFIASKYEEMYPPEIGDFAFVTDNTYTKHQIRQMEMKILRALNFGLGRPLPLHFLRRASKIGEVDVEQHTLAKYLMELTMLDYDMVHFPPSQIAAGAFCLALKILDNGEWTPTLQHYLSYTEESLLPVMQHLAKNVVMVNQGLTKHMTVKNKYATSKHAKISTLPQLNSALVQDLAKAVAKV
T1 sequence (P35968 20-1356): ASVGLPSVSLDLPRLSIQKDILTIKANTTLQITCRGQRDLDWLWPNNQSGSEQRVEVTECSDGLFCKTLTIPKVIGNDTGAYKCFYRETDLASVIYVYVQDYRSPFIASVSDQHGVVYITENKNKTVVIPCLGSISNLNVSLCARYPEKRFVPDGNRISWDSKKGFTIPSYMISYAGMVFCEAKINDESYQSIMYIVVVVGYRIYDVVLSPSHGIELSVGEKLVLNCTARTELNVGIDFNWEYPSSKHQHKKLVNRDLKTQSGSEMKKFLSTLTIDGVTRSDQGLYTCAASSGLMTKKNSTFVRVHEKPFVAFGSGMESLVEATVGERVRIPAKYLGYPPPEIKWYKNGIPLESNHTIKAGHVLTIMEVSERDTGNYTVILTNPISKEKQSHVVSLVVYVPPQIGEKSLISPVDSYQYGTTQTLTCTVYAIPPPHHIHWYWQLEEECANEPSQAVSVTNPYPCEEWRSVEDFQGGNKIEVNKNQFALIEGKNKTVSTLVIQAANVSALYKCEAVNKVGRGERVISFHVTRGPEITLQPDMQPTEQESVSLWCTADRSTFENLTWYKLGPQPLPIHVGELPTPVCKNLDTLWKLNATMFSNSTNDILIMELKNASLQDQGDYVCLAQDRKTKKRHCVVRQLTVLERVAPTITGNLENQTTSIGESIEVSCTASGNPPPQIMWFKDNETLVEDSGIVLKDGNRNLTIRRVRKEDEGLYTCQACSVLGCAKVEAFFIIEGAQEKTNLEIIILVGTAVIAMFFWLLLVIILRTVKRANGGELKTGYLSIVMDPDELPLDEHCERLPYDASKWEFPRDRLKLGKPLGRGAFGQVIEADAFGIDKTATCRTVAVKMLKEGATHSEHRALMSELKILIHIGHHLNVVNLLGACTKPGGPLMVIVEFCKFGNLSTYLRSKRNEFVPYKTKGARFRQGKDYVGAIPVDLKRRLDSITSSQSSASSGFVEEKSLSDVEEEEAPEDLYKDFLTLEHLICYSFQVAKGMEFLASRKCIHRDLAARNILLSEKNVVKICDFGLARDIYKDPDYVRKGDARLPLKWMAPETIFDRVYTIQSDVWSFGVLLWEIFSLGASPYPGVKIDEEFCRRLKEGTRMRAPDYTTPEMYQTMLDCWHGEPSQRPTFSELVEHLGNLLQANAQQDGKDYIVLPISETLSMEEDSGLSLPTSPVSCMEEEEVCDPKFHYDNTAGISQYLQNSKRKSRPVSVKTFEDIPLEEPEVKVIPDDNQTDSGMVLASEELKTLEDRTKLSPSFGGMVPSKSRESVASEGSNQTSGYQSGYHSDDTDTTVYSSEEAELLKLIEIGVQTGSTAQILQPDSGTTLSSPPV

**Q.** For `C[C@H](CO)Nc1nc(Nc2ccc(S(C)(=N)=O)cc2)ncc1Br` (mixture of isomers) [Example 1.0, (RS)-S-[4-({5-Bromo-4-[(R)-(2-hydroxy-1-methylethyl)amino]pyridimin-2-yl}amino)phenyl]-S-methyl sulfoximide], which IC50 [1] is on record?
**A.** 40 nM

**Q.** And the IC50 (Human Carboanhydrase-2)?
**A.** > 10000 nM

**Q.** What about the IC50 (MaTu-ADR) of the same compound?
**A.** 1600 nM

**Q.** And the IC50 [2]?
**A.** 300 nM

**Q.** What about the IC50 [3] of the same compound?
**A.** 400 nM

**Q.** What about the IC50 (CDK1/CycB) of the same compound?
**A.** 79 nM

**Q.** What about the IC50 [4] of the same compound?
**A.** 1200 nM

**Q.** And the IC50 (CDK2/CycE)?
**A.** < 10 nM

**Q.** What about the IC50 [5] of the same compound?
**A.** 1500 nM

**Q.** What does the source list for `CC(C)Nc1nc(Nc2ccc(S(C)(=N)=O)cc2)ncc1Br` (racemic) [Example 2.0, (RS)-S-(4-{[5-bromo-4-(isopropylamino)pyrimidin-2-yl]amino}phenyl)-S-methyl sulfoximide]?
**A.** IC50 (Human Carboanhydrase-2): > 10000 nM; IC50 (MaTu-ADR): 400 nM; IC50 [2]: 1500 nM; IC50 [3]: 300 nM; IC50 (CDK1/CycB): 110 nM; IC50 [4]: 300 nM; IC50 [5]: 1700 nM
